Results from patent US12195428B2, “Charged ion channel blockers and methods for use” (Nocion Therapeutics, Inc., priority 2019, dated 2025).

What was measured:
NaV1.7 [1] = molecular target: T1, NaV1.7 (Homo sapiens, UniProt Q15858); assay: Nav1.7 extracellular inhibition (external block), whole cell patch clamp; type: cell-based; settings: compound in external solution for 5 minutes, 5 Hz stimulation; for inhibition at 10 µM: % inhibition at 10 μM test concentration; for inhibition at 30 µM: % inhibition at 30 μM test concentration
T1 construct: expressed in transfected cells; host or cells: unnamed tetracycline-inducible cell line, kept under hygromycin and blasticidin selection
Procedure: (§1) Representative compounds of the invention were synthesized according to the described methods and tested for the ability to inhibit voltage-gated sodium channels.
(§2) NaV1.7 was expressed upon induction with tetracycline. Cells were cultured in DMEM containing 10% dialyzed Fetal Bovine Serum (VWR, Radnor, PA), 1% Glutamax (VWR, Radnor, PA), 1% Penicillin-Streptomycin (VWR, Radnor, PA), 100 mg/L Hygromycin (Thermo Fisher Scientific, Waltham, MA and 5 mg/L Blasticidin (Alfa Aesar, Haverhill, MA). Cells were grown and maintained at 37° C. in a humidified environment containing 10% CO2 in air. Cells were detached from the culture flask for passage and harvested using 0.05% Trypsin-EDTA (Thermo Fisher Scientific, Waltham, MA). To induce NaV1.7, cells were induced with tetracycline ([…], IBI Scientific, Peosta, IA) the day before recording and plated onto 24-well plates. Cells were washed with DPBS (VWR, Radnor, PA), trypsinized and then triturated five times in 10 mL of growth media to break apart cell aggregates. For one 24-well plate, 2 mL of cell suspension was mixed with 23 mL of fresh growth media and […] tetracycline added. 1 ml of mixed media with cells was then added to each well of a 24-well plate, with a 12 mm coverslip already placed in the bottom of the well. Cells were then incubated in 37° C. and 10% CO2 overnight.
(§3) The intracellular solution contained the following (in mM) CsCl 135, NaCl 10, EGTA 10, HEPES 10, MgCl2 2, adjusted to pH 7.2 with CsOH. The external solution was a normal Ringer solution containing (in mM) NaCl 155, HEPES 10, glucose 10, KCl 3.5, CaCl2) 1.5, MgCl2 1 adjusted to pH 7.4 with NaOH. CsCl is from Alfa Aesar, Haverhill, MA. All other chemicals are from Sigma-Aldrich, St. Louis, MO. In order to test the degree of internal block by test compounds the compounds were dissolved in internal solution at the indicated test concentration. […] In order to test the degree of external block by test compounds the compounds were dissolved in external solution at the indicated test concentration.
(§4) 18-24 hours after cells were induced with tetracycline, coverslips were placed into a chamber filled with Normal Ringer solution at room temperature and the chamber placed on a microscope. Pipettes were pulled from borosilicate glass on a P97 puller (Sutter Instrument, Novato, CA) and polished with a MF-830 Microforge (Narishige International USA, Inc, Amityville, NY) to have a resistance of 1.5-2.5 MΩ when filled with CsCl internal solution at room temperature. Healthy cells (those that are round and translucent with no visible blemishes) were chosen for seal formation. A seal was formed between the pipette and the cell, and a brief pulse of suction was used to “break in” and establish the whole-cell configuration. The membrane potential was held at −100 mV before the voltage protocol began. Only cells with series resistance between 1.5-5 MΩ were retained for analysis. The voltage protocol was as follows: Cells were held at −100 mV for 12 ms followed by a hyperpolarizing step to −105 mV for 12 ms to monitor the leak. Cells were then stepped back to −100 mV for 40 ms. Cells were then depolarized to −20 mV for 10 ms and then returned to −100 mV for 26 ms.
Once the recording was started, the voltage protocol was run at 30 second intervals for 5 minutes to get a stable baseline. […] Currents were recorded using PatchMaster software with Heka EPC10 (HEKA Electronics, Lambrecht, Germany). […]

[2] = PAMPA membrane permeability assay; type: in vitro ADME; settings: pH 7.4 buffer, GIT lipid, 4 hours incubation
Procedure: The PAMPA assay (pION, Inc., Woburn MA) was used to determine the ability of compounds of the invention to cross an artificial lipid membrane by passive diffusion. Test compounds were dissolved in DMSO (10 mM) and diluted 200-fold in buffer (pION Inc., pH 7.4) to provide 50 uM stock solutions. Buffer (150 μL) was added to a UV blank plate and stock solutions (150 μL) were transferred to a UV reference plate. The blank and reference spectrum were read using a spectrophotometer. Stock solutions (200 μL) were added to the donor plate of the PAMPA sandwich plate and an accept plate painted with GIT lipid (pION Inc, 5 μL) was placed on top. Buffer (200 μL) was added to the acceptor plate and the PAMPA sandwich plate was incubated for 4 hours. Aliquots (150 μL) from the acceptor plate were added to a UV plate and read as acceptor spectrum. Aliquots (150 μL) of the donor solutions were added to a UV analysis plate and read as donor spectrum. The permeability coefficient of test compounds was calculated using PAMPA Explorer™ software (version 3.5.0.4) based on the AUC of the reference plate, the donor plate, and the acceptor plate.

NaV1.7 [3] = molecular target: T1, NaV1.7; assay: Nav1.7 intracellular inhibition (internal block), whole cell patch clamp; type: cell-based; settings: % inhibition at 1 μM test concentration, compound in internal solution, 5 Hz stimulation
Procedure: as §1, §2, §3, §4
Once the recording was started, the voltage protocol was run at 30 second intervals for 5 minutes to get a stable baseline. This was followed by four 30-second periods of 5 Hz stimulation of the same voltage protocol separated by 1 minute of rest which was then followed by 0.33 Hz stimulation after the last train. Currents were recorded using PatchMaster software with Heka EPC10 (HEKA Electronics, Lambrecht, Germany). Only cells with inward current amplitudes at −20 mV between 400 pA and 4 nA were accepted. In addition, cells having leak currents greater than 10% of their current amplitudes were discarded. […]

T1 sequence (Q15858 whole entry): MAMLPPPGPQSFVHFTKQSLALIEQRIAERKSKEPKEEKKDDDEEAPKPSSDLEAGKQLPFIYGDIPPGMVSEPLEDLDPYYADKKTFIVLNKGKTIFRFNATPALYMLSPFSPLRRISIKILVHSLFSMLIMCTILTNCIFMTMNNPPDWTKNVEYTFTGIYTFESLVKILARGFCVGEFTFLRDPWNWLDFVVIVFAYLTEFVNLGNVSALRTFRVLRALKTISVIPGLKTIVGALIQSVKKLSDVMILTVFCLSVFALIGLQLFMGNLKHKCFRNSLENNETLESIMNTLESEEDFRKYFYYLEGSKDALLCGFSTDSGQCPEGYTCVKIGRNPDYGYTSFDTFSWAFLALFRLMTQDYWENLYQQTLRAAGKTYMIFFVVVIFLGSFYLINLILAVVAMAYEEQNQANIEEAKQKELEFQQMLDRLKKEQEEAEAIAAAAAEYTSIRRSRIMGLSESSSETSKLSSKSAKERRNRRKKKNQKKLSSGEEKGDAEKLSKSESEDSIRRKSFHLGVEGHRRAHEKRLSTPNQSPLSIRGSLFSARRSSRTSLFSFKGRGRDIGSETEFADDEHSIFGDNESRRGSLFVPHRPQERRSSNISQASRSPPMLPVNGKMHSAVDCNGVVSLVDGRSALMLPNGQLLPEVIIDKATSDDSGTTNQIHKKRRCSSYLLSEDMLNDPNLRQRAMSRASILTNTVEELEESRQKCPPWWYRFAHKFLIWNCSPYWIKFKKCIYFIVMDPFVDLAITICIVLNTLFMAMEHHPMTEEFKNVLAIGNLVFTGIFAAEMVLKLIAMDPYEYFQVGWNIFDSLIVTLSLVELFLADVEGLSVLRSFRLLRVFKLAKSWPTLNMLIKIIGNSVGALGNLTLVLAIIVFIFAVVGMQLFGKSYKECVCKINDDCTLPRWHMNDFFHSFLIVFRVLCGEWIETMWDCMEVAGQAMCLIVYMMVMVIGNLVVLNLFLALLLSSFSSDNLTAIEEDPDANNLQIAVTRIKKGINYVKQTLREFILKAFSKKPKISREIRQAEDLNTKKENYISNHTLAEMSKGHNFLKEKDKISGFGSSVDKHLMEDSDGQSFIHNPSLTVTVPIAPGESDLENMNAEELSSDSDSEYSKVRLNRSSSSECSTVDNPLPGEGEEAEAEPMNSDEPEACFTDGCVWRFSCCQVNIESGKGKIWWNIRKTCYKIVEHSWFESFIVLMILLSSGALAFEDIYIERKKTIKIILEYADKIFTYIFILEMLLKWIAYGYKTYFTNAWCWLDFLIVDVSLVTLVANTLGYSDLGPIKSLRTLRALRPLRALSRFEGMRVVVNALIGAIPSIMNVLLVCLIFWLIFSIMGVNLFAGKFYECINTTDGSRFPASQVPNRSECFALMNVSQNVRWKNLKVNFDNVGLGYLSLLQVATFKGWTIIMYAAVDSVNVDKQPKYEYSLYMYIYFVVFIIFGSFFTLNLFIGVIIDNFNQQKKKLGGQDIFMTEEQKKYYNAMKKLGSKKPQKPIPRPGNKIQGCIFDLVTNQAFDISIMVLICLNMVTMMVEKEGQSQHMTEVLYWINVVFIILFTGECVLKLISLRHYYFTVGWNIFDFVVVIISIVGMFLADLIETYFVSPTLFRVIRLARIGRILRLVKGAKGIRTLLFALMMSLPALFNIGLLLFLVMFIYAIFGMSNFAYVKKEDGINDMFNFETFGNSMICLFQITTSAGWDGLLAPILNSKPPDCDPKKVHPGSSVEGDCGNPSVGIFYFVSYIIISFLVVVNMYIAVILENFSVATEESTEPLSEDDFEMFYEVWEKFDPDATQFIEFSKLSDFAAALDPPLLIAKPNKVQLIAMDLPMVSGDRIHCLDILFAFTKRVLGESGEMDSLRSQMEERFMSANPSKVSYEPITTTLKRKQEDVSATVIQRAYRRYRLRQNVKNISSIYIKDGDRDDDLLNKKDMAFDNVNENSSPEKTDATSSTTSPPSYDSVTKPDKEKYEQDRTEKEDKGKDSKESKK

Compound | inhibition at 10 µM (NaV1.7 [1]) | PAMPA (10^−6 cm/s) [2] | inhibition at 1 µM (NaV1.7 [3]) | inhibition at 30 µM (NaV1.7 [1])
CC[N+]1(CC(=O)Nc2c(C)cccc2C)CCC[C@H](c2ccccc2)C1.[I-] (stereo partly drawn) [Compound 3A] | 30 to 70% | + (“+” (<0.1 10^−6 cm/s)) | > 90% | 
CC[N+]1(CC(=O)Nc2c(C)cccc2C)CCCCC1c1ccccc1 (stereo not drawn) [Compound 5A] |  | + (“+” (<0.1 10^−6 cm/s)) | 70 to 90% | 30 to 70%
Cc1cccc(C)c1NC(=O)C[N+]1(C)CCCC(c2ccccc2)C1.[I-] (stereo not drawn) [Compound 4A] |  | + (“+” (<0.1 10^−6 cm/s)) | 70 to 90% | 
CC[N+]1(CC(=O)Nc2c(C)cccc2C)CCCC(c2ccccc2)C1 (stereo not drawn) [Compound 1A, 1-(2-((2,6-dimethylphenyl)amino)-2-oxoethyl)-1-ethyl-3-phenylpiperidin-1-ium iodide] |  |  | > 90% | 
CC[N+]1(CC(=O)Nc2c(C)cccc2C)CCC[C@@H](c2ccccc2)C1.[I-] (stereo partly drawn) [Compound 2A] | < 30% | + (“+” (<0.1 10^−6 cm/s)) | > 90% | 

Further lines, results first:

inhibition at 10 µM (NaV1.7 [1]) | PAMPA (10^−6 cm/s) [2] | inhibition at 1 µM (NaV1.7 [3]) | inhibition at 30 µM (NaV1.7 [1]) | Compound
30 to 70% | + (“+” (<0.1 10^−6 cm/s)) | > 90% |  | CCC[N+]1(CC(=O)Nc2c(C)cccc2C)CCCC(c2ccccc2)C1 (stereo not drawn) [Compound 6A]
 | + (“+” (<0.1 10^−6 cm/s)) | 30 to 70% |  | COC(=O)C[N+]1(CC(=O)Nc2c(C)cccc2C)CCCCC1c1ccccc1 (stereo not drawn) [Compound 9A]
 | + (“+” (<0.1 10^−6 cm/s)) | 30 to 70% | 30 to 70% | Cc1cccc(C)c1NC(=O)C[N+]1(C)CCCCC1c1ccccc1.[I-] (stereo not drawn) [Compound 8A]
 |  | 30 to 70% |  | CCC[N+]1(CC(=O)Nc2c(C)cccc2C)CCCCC1c1ccccc1 (stereo not drawn) [Compound 10A]
